The text below walks through data of ChEMBL document CHEMBL4052807 (Bioorg Med Chem Lett, 2017).

Converted amounts (≈) assume the structure as drawn. A value given as a limit tells only on which side of the number the result lay.

Data set [1] can be described thus: Passive permeability in MDCK cells expressing human MDR1. It is filed as ADME, cell-based, Canis lupus familiaris. The following applies: dog, read-out: permeability.
The test system of data set [2] is Mus musculus. Briefly: Dose normalized AUC in Swiss albino mouse at 1 mg/kg, iv. It is filed as ADME, organism-based. The settings on record: in vivo.
Data set [3] is described as follows: Half life in Swiss albino mouse at 1 mg/kg, iv or 2 mg/kg, po. The class given is ADME, organism-based. The settings on record: in vivo.
Data set [4] can be described thus: Oral bioavailability in Swiss albino mouse at 2 mg/kg. The settings on record: in vivo. It is filed as ADME, organism-based.
Data set [5] can be described thus: Volume of distribution at steady state in Swiss albino mouse at 1 mg/kg, iv or 2 mg/kg, po. The class given is ADME, organism-based. The settings on record: in vivo, read-out: Vdss.
For data set [6], the target named is T1, Leucine-rich repeat serine/threonine-protein kinase 2 (Homo sapiens, UniProt Q5S007). The experiment in a line: Inhibition of LRRK2 (unknown origin) by HTRF assay. A general note: In TR-FRET formats the signal depends on donor and acceptor labels being close together.
T1 sequence (Q5S007 whole entry): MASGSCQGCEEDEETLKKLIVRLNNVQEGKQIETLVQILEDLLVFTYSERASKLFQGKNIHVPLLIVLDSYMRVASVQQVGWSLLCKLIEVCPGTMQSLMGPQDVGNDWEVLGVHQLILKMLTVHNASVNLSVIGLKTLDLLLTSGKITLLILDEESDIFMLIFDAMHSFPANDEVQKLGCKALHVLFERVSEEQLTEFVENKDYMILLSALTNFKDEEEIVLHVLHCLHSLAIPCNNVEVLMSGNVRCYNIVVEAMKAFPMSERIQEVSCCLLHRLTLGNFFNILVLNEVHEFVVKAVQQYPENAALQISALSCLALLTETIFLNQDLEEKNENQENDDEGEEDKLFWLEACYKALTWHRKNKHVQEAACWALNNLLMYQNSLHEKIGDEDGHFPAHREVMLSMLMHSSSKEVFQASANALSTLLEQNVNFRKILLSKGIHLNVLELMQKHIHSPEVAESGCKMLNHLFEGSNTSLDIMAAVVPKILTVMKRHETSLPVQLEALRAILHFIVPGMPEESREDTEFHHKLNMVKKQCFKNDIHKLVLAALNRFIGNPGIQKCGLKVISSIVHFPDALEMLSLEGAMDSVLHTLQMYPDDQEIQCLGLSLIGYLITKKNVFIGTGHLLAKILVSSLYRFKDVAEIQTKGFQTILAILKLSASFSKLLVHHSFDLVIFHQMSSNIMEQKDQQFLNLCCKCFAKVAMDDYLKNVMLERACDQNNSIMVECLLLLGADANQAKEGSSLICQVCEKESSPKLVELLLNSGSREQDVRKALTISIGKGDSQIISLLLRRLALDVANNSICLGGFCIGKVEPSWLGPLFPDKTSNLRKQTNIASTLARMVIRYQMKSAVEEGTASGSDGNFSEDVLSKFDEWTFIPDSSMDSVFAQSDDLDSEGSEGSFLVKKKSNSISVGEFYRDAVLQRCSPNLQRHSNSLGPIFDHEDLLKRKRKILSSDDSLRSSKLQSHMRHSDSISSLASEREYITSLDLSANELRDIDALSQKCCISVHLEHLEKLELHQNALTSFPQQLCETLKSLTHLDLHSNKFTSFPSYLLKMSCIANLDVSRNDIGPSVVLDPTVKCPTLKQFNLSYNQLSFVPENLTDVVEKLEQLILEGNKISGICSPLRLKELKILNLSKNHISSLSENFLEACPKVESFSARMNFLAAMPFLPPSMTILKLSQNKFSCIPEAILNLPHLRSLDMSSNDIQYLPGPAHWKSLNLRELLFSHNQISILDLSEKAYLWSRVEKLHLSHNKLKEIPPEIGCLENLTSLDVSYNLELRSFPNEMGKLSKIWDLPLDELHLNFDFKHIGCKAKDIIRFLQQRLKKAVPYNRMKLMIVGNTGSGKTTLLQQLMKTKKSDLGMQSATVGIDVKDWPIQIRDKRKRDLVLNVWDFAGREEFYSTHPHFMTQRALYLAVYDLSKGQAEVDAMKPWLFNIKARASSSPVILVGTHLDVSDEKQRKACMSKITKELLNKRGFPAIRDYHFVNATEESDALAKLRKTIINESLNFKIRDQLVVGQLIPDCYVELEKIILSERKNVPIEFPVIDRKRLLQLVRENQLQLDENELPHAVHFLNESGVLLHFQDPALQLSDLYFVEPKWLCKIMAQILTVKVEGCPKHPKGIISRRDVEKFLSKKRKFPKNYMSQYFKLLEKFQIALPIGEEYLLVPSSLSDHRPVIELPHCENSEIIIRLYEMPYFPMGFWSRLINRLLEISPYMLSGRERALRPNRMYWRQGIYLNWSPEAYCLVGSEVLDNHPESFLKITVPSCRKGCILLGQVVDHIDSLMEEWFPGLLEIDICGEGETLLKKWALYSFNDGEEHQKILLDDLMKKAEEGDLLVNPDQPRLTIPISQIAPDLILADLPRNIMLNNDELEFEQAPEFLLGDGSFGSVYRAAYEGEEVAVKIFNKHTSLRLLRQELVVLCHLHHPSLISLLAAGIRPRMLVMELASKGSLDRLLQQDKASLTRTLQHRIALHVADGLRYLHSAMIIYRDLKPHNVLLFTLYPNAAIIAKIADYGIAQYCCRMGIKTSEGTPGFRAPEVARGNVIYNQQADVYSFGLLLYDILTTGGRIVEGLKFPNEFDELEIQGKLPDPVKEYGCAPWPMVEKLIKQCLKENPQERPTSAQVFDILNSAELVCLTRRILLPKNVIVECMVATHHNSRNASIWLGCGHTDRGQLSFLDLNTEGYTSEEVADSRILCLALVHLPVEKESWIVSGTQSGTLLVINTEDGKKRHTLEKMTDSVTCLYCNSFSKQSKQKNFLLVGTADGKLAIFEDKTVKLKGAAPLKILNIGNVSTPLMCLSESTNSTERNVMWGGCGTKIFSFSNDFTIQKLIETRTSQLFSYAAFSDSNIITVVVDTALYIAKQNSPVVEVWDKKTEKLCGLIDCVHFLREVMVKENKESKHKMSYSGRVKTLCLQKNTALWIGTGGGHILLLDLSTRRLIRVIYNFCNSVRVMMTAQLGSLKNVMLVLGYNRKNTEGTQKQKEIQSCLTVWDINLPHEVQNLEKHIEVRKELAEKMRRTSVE
Data set [7] can be described thus: Solubility of the compound. It is filed as physicochemical.
The next data set deals with Liver. Briefly: Intrinsic clearance in human liver microsomes. The class given is ADME, microsome. On the technique in general: Liver microsomes are vesicles of endoplasmic reticulum, rich in cytochrome P450 enzymes.
For data set [8], the target named is T2, SRSF protein kinase 3 (Homo sapiens, UniProt Q9UPE1). The experiment in a line: Inhibition of human MSSK1 using GRSRSRSRSR as substrate at 1uM in presence of [gamma-33P]-ATP.
T2 sequence (Q9UPE1 whole entry): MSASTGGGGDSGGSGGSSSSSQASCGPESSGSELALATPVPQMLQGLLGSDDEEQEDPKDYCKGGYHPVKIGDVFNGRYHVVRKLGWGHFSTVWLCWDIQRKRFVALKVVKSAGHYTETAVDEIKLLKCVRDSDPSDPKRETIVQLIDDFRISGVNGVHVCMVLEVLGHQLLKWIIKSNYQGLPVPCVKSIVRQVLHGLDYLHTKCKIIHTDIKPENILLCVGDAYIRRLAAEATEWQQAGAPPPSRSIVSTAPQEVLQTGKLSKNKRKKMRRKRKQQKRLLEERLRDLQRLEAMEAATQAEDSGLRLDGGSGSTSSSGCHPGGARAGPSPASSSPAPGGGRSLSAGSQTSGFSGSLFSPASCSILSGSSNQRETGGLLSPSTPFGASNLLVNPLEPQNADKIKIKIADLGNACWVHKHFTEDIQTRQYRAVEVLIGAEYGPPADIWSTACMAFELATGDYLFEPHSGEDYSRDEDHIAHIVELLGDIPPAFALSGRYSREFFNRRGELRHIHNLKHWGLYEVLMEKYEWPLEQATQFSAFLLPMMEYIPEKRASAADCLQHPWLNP
The nature of data set [9]: Protein binding in mouse brain. The class given is ADME, tissue-based. The following applies: read-out: PB (converted).
In data set [10] the target is T2, SRSF protein kinase 3. The experiment in a line: Inhibition of human MSSK1 GRSRSRSRSR as substrate in presence of [gamma-33P]-ATP.
The target of data set [11] is T1, Leucine-rich repeat serine/threonine-protein kinase 2. The experiment in a line: Inhibition of human LRRK2 using RLGRDKYKTLRQIRQ as substrate at 1uM in presence of [gamma-33P]-ATP.
Data set [12] can be described thus: Ratio of drug level in Swiss albino mouse brain to blood at 1 mg/kg, iv or 2 mg/kg, po. It is filed as ADME, organism-based.
Data set [13] in a line: Blood clearance in Swiss albino mouse at 1 mg/kg, iv or 2 mg/kg, po. It is filed as ADME, organism-based. The following applies: whole blood.
Data set [14] is described as follows: Half life in Swiss albino mouse at 1 mg/kg, iv or 10 mg/kg, po. It is filed as ADME, organism-based. The settings on record: in vivo.
Data set [15] deals with Mus musculus. The experiment in a line: Volume of distribution at steady state in Swiss albino mouse at 1 mg/kg, iv or 10 mg/kg, po. The class given is ADME, organism-based. The settings on record: in vivo.

`Cn1cc(-c2ccc(OCc3ccc(F)cc3)c(C(=O)Nc3cccnc3)c2)cn1`: the Papp in data set [1] is > 10 ×10⁻⁶ cm/s. The molecule also registered an AUC/dose in the data set on Mus musculus [2] of 253 ng·h/mL/mg/kg. Moreover, in data set [3], the half-life (commonly the time needed for the level to fall by half in the phase considered) was 0.4 h. In addition, the bioavailability (in general, dose-corrected exposure relative to a reference, in per cent) in data set [4] worked out at 10%. In [5], the Vd came out at 1.6 L/kg.
On to `O=C(Nc1cccnc1)c1cc(Br)ccc1OCc1cccc(F)c1`, for which the half-inhibitory concentration (IC50) – broadly, the point on the concentration scale where inhibition reaches its midpoint – in [6] was 15.8 nM.
On to `O=C(Nc1cccnc1)c1cc(Br)ccc1OCc1ccccc1`, for which the solubility (commonly the concentration that dissolves in the medium under given conditions) in data set [7] was < 1 µM. This molecule also had an IC50 in data set [6] of 12.6 nM. This molecule had a CLH in the data set on Liver of 2.8 mL/min/g.
For `O=C(Nc1cccnc1)c1cc(C(F)(F)F)ccc1OCc1ccc(F)cc1`, the inhibition (at SRSF protein kinase 3 [8]; in data set [11]) was > 40% in each case. Moreover, the Papp in [1] was > 10 ×10⁻⁶ cm/s. The same molecule showed a solubility in data set [7] of 11 µM (≈ 4.29 µg/mL). Also, in the data set on Mus musculus [2], the AUC/dose is 597 ng·h/mL/mg/kg. Moreover, the fraction unbound in [9] is 0.004. For the same molecule, the IC50 at SRSF protein kinase 3 [10] was 158 nM. This molecule also gave a half-life in data set [3] of 1.2 h. In addition, the bioavailability in data set [4] stood at 91.6%. The concentration ratio (Kp) (usually tissue or fluid exposure divided by exposure in the circulation) in data set [12] was found to be 1.3. Also, in the data set on Liver, the CLH stood at 0.8 mL/min/g. In addition, the Vd in data set [5] turned out to be 2.7 L/kg. Moreover, the clearance in [13] was 27.7 mL/min/kg.
`O=C(Nc1cccnc1)c1cc(Br)ccc1OCc1ccccc1F`: in data set [6], the IC50 was 7.94 nM.
The molecule `O=C(Nc1cccnc1)c1cc(-c2ccnc(F)c2)ccc1OCc1ccccc1` showed a half-life in [14] of 1.1 h. The Papp in data set [1] was > 10 ×10⁻⁶ cm/s. The AUC/dose in the data set on Mus musculus [2] is 520 ng·h/mL/mg/kg. The fraction unbound in [9] is 0.003. Besides, the half-maximal inhibitory concentration (IC50) in [6] is 10 nM. The same molecule had a Vdss in the data set with Mus musculus [15] of 2.3 L/kg. This molecule came in with a CLH in the data set with Liver of 1.2 mL/min/g.
